Like-named read-outs stand apart in the source and are kept apart here.
Experiments:
[1] = DPPH radical scavenging assay; settings: 0.03 mg/mL, time-point 0 min
Procedure: (§1) From all the methods available for the prediction of the antioxidant properties, DPPH^● and ABTS^●+ assays were chosen according to their simplicity, accessibility, and effectiveness for a fast prediction of radical scavenging activities in vitro. The radical scavenging capacity of the novel selenoureas was determined by DPPH^● and ABTS^●^+ assays. Measurements were recorded on a BioTeck PowerWave XS spectrophotometer (BioTeck Instruments, Winooski (VT), USA) and the data were collected using KCJunior software (BioTeck Instruments, Winooski (VT), USA).
A DPPH assay was performed, as described by Svinyarov. Stock solutions of 1 mg/mL were initially prepared for each selenourea in methanol and this solution was used for the preparation of the different concentrations employed in the assay. Ascorbic acid (Asc) was used as positive control due to the literature reports that this derivative is a potent antioxidant and radical scavenger. A volume of 100 µL from a previously prepared stock solution (preserved in dark and daily prepared) of DPPH (100 µM) in methanol were added to 100 µL of the methanolic selenoureas solutions prepared previously, and the antioxidant activity these compounds was assessed by its ability to decolorize DPPH● radical (purple color in methanol) to DPPHH (colorless). Thus, radical scavenging activity was estimated by the decrease in the absorbance at 517 nm. Determinations were recorded at different time-points. All the measurements were carried out in triplicate. Results are expressed as the percentage of the radicals scavenged, calculated using the following formula:(1) % DPPH radical scavenging=Acontrol − Asample/Acontrol × 100 where Acontrol refers to the absorbance of the negative control and Asample refers to the absorbance of the tested compounds. Results are expressed as percentage of DPPH radical scavenging ± SD.
In order to determine the radical scavenging of these newly synthesized selenourea derivatives, the DPPH assay was firstly employed. Measurements were performed at four different concentrations ranging from 0.0003 to 0.03 mg/mL, and collected at time-points between 0 min and 120 min (Figures S81–S100). Results are presented as the percentage of inhibition for DPPH radical scavenging activity.

[2] = tested on: MCF-7 cells (breast adenocarcinoma); assay: MTT cell viability assay, MCF-7; assay type: cell-based, human; settings: for IC50 / viability at 10 µM / viability at 50 µM: Homo sapiens, MCF7, 48 h, MTT; for IC50: mean ± SD, read-out: IC50 MCF-7 (breast); for viability at 10 µM: MCF-7, 10 µM; for viability at 10 µM / viability at 50 µM: read-out: cell viability, percentage of live cells; for viability at 50 µM: MCF-7, 50 µM; for SI (selectivity index) breast: IC50 (184B5)/IC50 (MCF-7)
Procedure: (§2) Cell lines were purchased from the American Type Culture Collection (ATCC). MCF-7, HTB-54, BEAS-2B and 184B5 cell lines were grown in RPMI 1640 medium (Gibco) supplemented with 10% fetal bovine serum (FBS; Gibco), 100 units/mL penicillin, and […] streptomycin (Gibco). HT-29 and HCT-116 cell lines was cultured in McCoy’s 5A (Gibco), 10% FBS, 100 units/mL penicillin, and 100 μg/mL streptomycin. Cells were maintained at 37 °C and 5% CO2. Culture medium was replaced every three days.
(§3) A cell viability assay of each compound was carried out using an MTT assay. Each selenourea was dissolved in dimethyl sulfoxide (DMSO) at a concentration of 0.01 M. Serial dilutions were prepared with non-supplemented culture medium. Cytotoxic activity of each selenourea was determined at two different concentrations (10 and 50 µM) in MCF-7, HTB-54, and HT-29 cells. In addition, selected compounds were tested at seven different concentrations (0.1, 1, 5, 10, 25, 50, 100 µM) on MCF-7, HT-29, HCT-116, HTB-54, 184B5, and BEAS-2B cells. The number of passages before defrosting the cells was 3, and they were kept under culture up to a maximum of 15.
(§4) Briefly, 1 × 10^4 cells/well were grown in 96-well plates for 24 h. Then, these cells were incubated with either DMSO (negative control) at 5 µM or a different concentration of each tested selenourea for 48 h. A volume of 20 µL of MTT was added 150 min before the termination point to measure cellular viability. After this time, culture medium was removed. The resultant formazan crystals were dissolved in 50 µL of DMSO, and absorbance was measured at 570 nm. Results are expressed as IC50, the half maximal inhibitory concentration. This value was calculated using GraphPad Prism 7 software by nonlinear curve fitting. Furthermore, the selectivity index (SI) was calculated as the ratio of the IC50 values determined for the non-malignant and the tumoral cells (IC50 (184B5)/IC50 (MCF-7) or (IC50 (BEAS-2B)/IC50 (HTB-54). Data were obtained from at least three independent experiments performed in triplicates.
(§5) The cytotoxic effects of synthesized compounds were evaluated against three human cancer cell lines: breast adenocarcinoma (MCF-7), lung adenocarcinoma (HTB-54), and colon carcinoma (HT-29), using a 3-[4,5-dimethylthiazol-2-yl]-2,5-diphenyltetrazolium bromide (MTT) assay. Firstly, the compounds were screened at two doses (50 and 10 µM) and after 48 h of treatment. The results are summarized in Figure 4 and are presented as percentages of growth inhibition related to control.

[3] = tested on: HTB-54 cells (lung adenocarcinoma); assay: MTT cell viability assay, HTB-54; assay type: cell-based, human; settings: for IC50 / viability at 10 µM / viability at 50 µM: Homo sapiens, 48 h, MTT; for IC50: HTB-54, mean ± SD, read-out: IC50 HTB-54 (lung); for viability at 10 µM: HTB-54, 10 µM; for viability at 10 µM / viability at 50 µM: read-out: cell viability, percentage of live cells; for viability at 50 µM: HTB-54, 50 µM; for SI (selectivity index) lung: IC50 (BEAS-2B)/IC50 (HTB-54)
Procedure: as §2, §3, §4, §5

[4] = tested on: HT-29 cells (colon carcinoma); assay: MTT cell viability assay, HT-29; assay type: cell-based; settings: Homo sapiens, 48 h, MTT; for IC50: HT-29, mean ± SD, read-out: IC50 HT-29 (colon); for viability at 10 µM: HT-29, 10 µM; for viability at 10 µM / viability at 50 µM: read-out: cell viability, percentage of live cells; for viability at 50 µM: HT-29, 50 µM
Procedure: as §2, §3, §4, §5

HCT-116 cells (colon) = assay: MTT cell viability assay, HCT-116; assay type: cell-based; settings: 48 h, MTT, mean ± SD, read-out: IC50 HCT-116 (colon)
Procedure: as §2, §3, §4

[5] = tested on: 184B5 cells (breast non-malignant derived cell line); assay: MTT cell viability assay, 184B5; assay type: cell-based; settings: Homo sapiens, 184B5; 48 h, MTT, mean ± SD; read-out: IC50 184B5 (breast, non-malignant)
Procedure: as §2, §3, §4

[6] = tested on: BEAS-2B cells (lung non-malignant derived cell line); assay: MTT cell viability assay, BEAS-2B; assay type: cell-based; settings: Homo sapiens, 48 h, mean ± SD
Procedure: as §2, §3, §4

[7] = tested on: MCF-7, HTB-54, HT-29 and HCT-116 cancer cell lines; assay: MTT assay, panel of four cancer cell lines; assay type: cell-based; settings: MCF-7, HTB-54, HT-29, HCT-116, read-out: IC50 against the four cancer cell lines tested (all the cell lines)
Procedure: as §3, §4
Those derivatives that reduced the growth of the cell lines below 50% at 10 µM in at least one cell line were selected for being evaluated at five concentrations between […] and 100 µM. Ten compounds (1d, 1e, 2a, 2d, 3a, 6a, 6b, 6c, 6d, and 6e) passed this threshold and four of them (1e, 6c, 6d and 6e) in all three cancer cell lines. The data are expressed as IC50 (mean ± SD) in a panel of four cancer cell lines (MCF-7, HTB-54, HT-29, and HCT-116), and are shown in Table 1. Cisplatin was used as a standard drug. […] Additionally, reported IC50 values of a well-known antitumor selenocompound, i.e., sodium selenite (Na2SeO3), were used as reference for comparision with the selected selenoureas.

[8] = tested on: MCF-7 cells (breast adenocarcinoma); settings: cited from earlier work
[9] = tested on: HTB-54 cells (lung adenocarcinoma); set-up: method as in PMID 22397496; settings: reference drug, literature value; cited from earlier work
[10] = tested on: HT-29 cells (colon carcinoma); set-up: method as in PMID 32801055; settings: reference drug, literature value; cited from earlier work
[11] = ABTS radical scavenging assay; settings: 0.003 mg/mL, 60 min
Procedure: as §1
As well as DPPH, ABTS radical scavenging assay is a colorimetric method. ABTS (2,2′-azino-bis(3-ethylbenzothiazoline-6-sulfonic acid) was dissolved in deionized water at 1 mg/mL and oxidized to ABTS^●+ with potassium persulfate (2.45 mM final concentration). This oxidation process is not instantaneous, and the reaction mixture was kept in the dark overnight at room temperature. After ABTS^●+ radical was generated, the ABTS^●+ solution was diluted with 50% ethanol until an absorbance of 0.70 ± 0.02 at 734 nm for measurements was achieved. Stock solution of 1 mg/mL in absolute ethanol was prepared for each selenourea, and different dilutions were prepared to reach the final concentration, when 20 µL of this solution were added to 180 µL of the diluted ABTS^●+. The absorbance at 734 nm was recorded using 50% ethanol as blank. Trolox and Asc were used as positive controls. All determinations were carried out in triplicate. Same time intervals as in the DPPH assay were also measured. The ability to scavenge ABTS^●+ was calculated using the following formula:(2) % ABTS radical scavenging=Acontrol − Asample/Acontrol × 100 where Acontrol refers to the absorbance of the negative control and Asample refers to the absorbance of the tested compounds. The results are expressed as percentage of ABTS radical scavenging ± SD.
In order to confirm the antioxidant activity of the selenoureas, we performed an additional ABTS (2,2′-azino-bis(3-ethylbenzothiazoline-6-sulfonic acid) radical scavenging assay. Following the results obtained in the DPPH assay, this experiment was performed at 0.03 and 0.003 mg/mL. Measurements were recorded after 0′, 6′ and 60′ of incubation with ABTS. For comparison purposes, Trolox and ascorbic acid were used as references. The remarkable results are summarized in Figure 3.

| SMILES | DPPH radical scavenging kinetics [1] | IC50 [2] [µM] | viability at 10 µM [2] [%] | viability at 50 µM [2] [%] | SI (selectivity index) breast [2] | IC50 [3] [µM] | viability at 10 µM [3] [%] | viability at 50 µM [3] [%] | SI (selectivity index) lung [3] | IC50 [4] [µM] | viability at 10 µM [4] [%] | viability at 50 µM [4] [%] | IC50 (HCT-116 cells (colon); Homo sapiens, HCT-116) [µM] | IC50 [5] [µM] | IC50 [6] [µM] | IC50 [7] [µM] | melting point [°C] | ABTS radical scavenging activity compared with Trolox [11] | other results |
| --- | --- | --- | --- | --- | --- | --- | --- | --- | --- | --- | --- | --- | --- | --- | --- | --- | --- | --- | --- |
| N#Cc1ccc(NC(=[Se])NC23CC4CC(CC(C4)C2)C3)cc1 [Compound 6e, N´-Adamanty-N-(4-cyanophenyl)selenourea] | reaching the maximum activity at time-point 0′ | 5.47 ± 3.91 | 44.4 | 5.7 | 1.41 | 6.09 ± 0.75 | 34 | 0.3 | 0.39 | 4.18 ± 0.46 | 18.9 | 3.6 | 5.43 ± 0.86 | 7.69 ± 0.31 | 2.36 ± 0.39 | < 10 |  |  |  |
| N.N.[Cl][Pt][Cl] [Cisplatin] |  |  |  |  |  |  |  |  |  |  |  |  |  |  |  |  |  |  | IC50 (HCT-116 cells (colon)): 2.18 ± 1.58 µM; IC50 ([8]; reference drug, literature value, read-out: IC50 MCF-7 (breast)): 15.2 ± 1.04 µM; IC50 [9]: 13.7 ± 0.83 µM; IC50 [10]: 14.2 ± 0.73 µM |
| O=[Se](O)O [sodium selenite] |  |  |  |  |  |  |  |  |  |  |  |  |  |  |  |  |  |  | IC50 ([8]; after 72 h of treatment, read-out: IC50 in MCF-7 cells): 17 µM |
| N#Cc1ccc(NC(=[Se])NCc2ccco2)cc1 [Compound 1e] | reaching the maximum activity at time-point 0′ | 9.96 ± 1.45 | 48.8 | 23.4 | 0.81 | 9.79 ± 0.07 | 35.7 | 9.3 | 0.61 | 5.89 ± 1.32 | 36.2 | 28.5 | 9.14 ± 1.14 | 8.09 ± 1.21 | 6.01 ± 0.94 | < 10 | 128 |  |  |
| Clc1ccc(NC(=[Se])NC23CC4CC(CC(C4)C2)C3)cc1 [Compound 6d, N´-adamantyl-N-(4-chlorophenyl)selenourea] |  | 7.19 ± 1.12 | 36.6 | 17.2 | 2.22 | 6.56 ± 0.99 | 22.9 | 4.4 | 1.16 | 8.04 ± 2.17 | 45.9 | 23.7 | 6.95 ± 0.65 | 16 ± 2.74 | 7.59 ± 0.53 | < 10 | 177 | significant lower radical scavenging activity than Trolox |  |
| Cc1ccc(NC(=[Se])NC23CC4CC(CC(C4)C2)C3)cc1 [Compound 6b] |  | 5.52 ± 1.61 | 40 | 9.2 | 2.21 | 9.01 ± 2.6 | 44.2 | 26.1 | 0.83 | 5.67 ± 4.67 | 51.4 | 46.8 | 6.29 ± 0.76 | 12.2 ± 2.42 | 7.56 ± 0.19 | < 10 | 169 | significant lower radical scavenging activity than Trolox |  |

From PMC8156206, “Novel N,N′-Disubstituted Selenoureas as Potential Antioxidant and Cytotoxic Agents” (Antioxidants, 2021)
